Calls of active or inactive are those of the source. No cut-off for these calls is given here.
Columns and labels:
HepG2 [1] = test: Growth inhibition of human HepG2 cells at 10 uM by MTT assay relative to control; format: functional; conditions: for inhibition of growth at 10 µM: read-out: GI
MCF7 [2] = test: Growth inhibition of human MCF7 cells at 10 uM by MTT assay relative to control; format: functional; conditions: for inhibition of growth at 10 µM: read-out: GI
HepG2 [3] = test: Growth inhibition of human HepG2 cells by MTT assay; format: functional
MCF7 [4] = test: Growth inhibition of human MCF7 cells by MTT assay; format: functional
[5] = Growth inhibition of human L-132 cells by MTT assay; format: cell-based, L132
[6] = Selectivity index, ratio of GI50 for human L-132 cells to GI50 for human MCF7 cells
[7] = Selectivity index, ratio of GI50 for human L-132 cells to GI50 for human HepG2 cells

SMILES	inhibition of growth at 10 µM (HepG2 [1])	inhibition of growth at 10 µM (MCF7 [2])	GI50 (HepG2 [3])	GI50 (MCF7 [4])	GI50 [5]	RatioGI50 [6]	RatioGI50 [7]	growth inhibition (GI) (HepG2 [1])	growth inhibition (GI) (MCF7 [2])
COc1ccc(C(=O)Nc2ccc(-c3cc(=O)c4c(O)c(OC)c(OC)cc4o3)cc2)cc1	< 50%	< 50%	–	–	–	–	–	–	–
COc1cc2oc(-c3ccc(NC(=O)c4ccccc4)cc3)cc(=O)c2c(O)c1OC	< 50%	< 50%	–	–	–	–	–	–	–
COc1cc2oc(-c3cccc(NC(=O)c4ccc(Br)cc4)c3)cc(=O)c2c(OC)c1OC	> 50%	> 50%	8.85 µM	9.65 µM	–	–	–	–	–
COC(=O)c1ccc(C(=O)Nc2ccc(-c3cc(=O)c4c(O)c(OC)c(OC)cc4o3)cc2)cc1	< 50%	< 50%	–	–	–	–	–	–	–
COc1cc2oc(-c3cccc(NC(=O)c4cccc(C#N)c4)c3)cc(=O)c2c(OC)c1OC	> 50%	> 50%	11.9 µM	41.7 µM	–	–	–	–	–
COc1cc2oc(-c3ccc(NC(=O)c4cccc(C#N)c4)cc3)cc(=O)c2c(O)c1OC	< 50%	< 50%	–	–	–	–	–	–	–
COc1cc2oc(-c3cccc(NC(=O)c4ccc(F)cc4)c3)cc(=O)c2c(OC)c1OC	> 50%	> 50%	47.2 µM	14.7 µM	–	–	–	–	–
COc1ccccc1C(=O)Nc1cccc(-c2cc(=O)c3c(O)c(OC)c(OC)cc3o2)c1	> 50%	> 50%	> 100 µM	1.83 µM	–	–	–	–	–
COc1cc2oc(-c3ccc(NC(=O)c4ccc([N+](=O)[O-])cc4)cc3)cc(=O)c2c(O)c1OC	40%	< 50%	–	–	–	–	–	–	–
COc1cccc(C(=O)Nc2cccc(-c3cc(=O)c4c(OC)c(OC)c(OC)cc4o3)c2)c1	> 50%	> 50%	7.06 µM	7.67 µM	20.9 µM	2 - 3	2 - 3	–	–
COc1cc2oc(-c3ccc(NC(=O)c4ccc(F)cc4)cc3)cc(=O)c2c(O)c1OC	< 50%	< 50%	–	–	–	–	–	–	–
COc1ccccc1C(=O)Nc1ccc(-c2cc(=O)c3c(O)c(OC)c(OC)cc3o2)cc1	< 50%	< 50%	–	–	–	–	–	–	–
COc1cc2oc(-c3cccc(NC(=O)c4ccc5c(c4)OCO5)c3)cc(=O)c2c(OC)c1OC	> 50%	> 50%	5.94 µM	9.12 µM	18 µM	2 - 3	2 - 3	–	–
COc1ccc(C(=O)Nc2cccc(-c3cc(=O)c4c(OC)c(OC)c(OC)cc4o3)c2)cc1	> 50%	> 50%	22.2 µM	6.87 µM	–	–	–	–	–
COC(=O)c1ccc(C(=O)Nc2cccc(-c3cc(=O)c4c(OC)c(OC)c(OC)cc4o3)c2)cc1	> 50%	> 50%	> 100 µM	30.3 µM	–	–	–	–	–
COc1cc2oc(-c3ccc(NC(=O)c4ccc(Cl)cc4)cc3)cc(=O)c2c(O)c1OC	< 50%	< 50%	–	–	–	–	–	–	–
COc1cc2oc(-c3cccc(NC(=O)c4ccc(Cl)cc4)c3)cc(=O)c2c(OC)c1OC	> 50%	> 50%	21.3 µM	8.78 µM	–	–	–	–	–
COc1cc2oc(-c3ccc(NC(=O)c4ccccc4Br)cc3)cc(=O)c2c(O)c1OC	< 50%	< 50%	–	–	–	–	–	–	–
COc1cc2oc(-c3ccc(NC(=O)c4ccc(C#N)cc4)cc3)cc(=O)c2c(O)c1OC	< 50%	< 50%	–	–	–	–	–	–	–
COc1cc2oc(-c3cccc(NC(=O)c4ccc5c(c4)OCO5)c3)cc(=O)c2c(O)c1OC	> 50%	> 50%	45.1 µM	8.47 µM	–	–	–	–	–

SMILES	inhibition of growth at 10 µM (HepG2 [1])	inhibition of growth at 10 µM (MCF7 [2])	GI50 (HepG2 [3])	GI50 (MCF7 [4])	GI50 [5]	RatioGI50 [6]	RatioGI50 [7]	growth inhibition (GI) (HepG2 [1])	growth inhibition (GI) (MCF7 [2])
COc1cc2oc(-c3ccc(NC(=O)c4ccc5c(c4)OCO5)cc3)cc(=O)c2c(O)c1OC	40%	< 50%	–	–	–	–	–	–	–
COc1cc2oc(-c3cccc(NC(=O)c4ccc(C(F)(F)F)cc4)c3)cc(=O)c2c(OC)c1OC	> 50%	> 50%	61.1 µM	10.6 µM	–	–	–	–	–
COc1cc2oc(-c3cccc(NC(=O)c4cccc(Br)c4)c3)cc(=O)c2c(O)c1OC	> 50%	> 50%	44.8 µM	6.94 µM	–	–	–	–	–
COc1cccc(C(=O)Nc2ccc(-c3cc(=O)c4c(O)c(OC)c(OC)cc4o3)cc2)c1	< 50%	< 50%	–	–	–	–	–	–	–
COc1cc2oc(-c3cccc(NC(=O)c4ccccc4Br)c3)cc(=O)c2c(OC)c1OC	> 50%	> 50%	23.1 µM	55 µM	–	–	–	–	–
COc1cc2oc(-c3cccc(NC(=O)c4ccc([N+](=O)[O-])cc4)c3)cc(=O)c2c(OC)c1OC	> 50%	> 50%	18.8 µM	20.1 µM	–	–	–	–	–
COc1cc2oc(-c3ccc(NC(=O)c4ccc(C(F)(F)F)cc4)cc3)cc(=O)c2c(O)c1OC	< 50%	< 50%	–	–	–	–	–	–	–
COc1cc2oc(-c3cccc(NC(=O)c4ccc(C)cc4)c3)cc(=O)c2c(OC)c1OC	> 50%	> 50%	9.75 µM	8.32 µM	–	–	–	–	–
COc1cccc(C(=O)Nc2cccc(-c3cc(=O)c4c(O)c(OC)c(OC)cc4o3)c2)c1	> 50%	> 50%	> 100 µM	35.6 µM	–	–	–	–	–
COc1cc2oc(-c3ccc(NC(=O)c4ccc(Br)cc4)cc3)cc(=O)c2c(O)c1OC	< 50%	< 50%	–	–	–	–	–	–	–
COc1cc2oc(-c3ccccc3)cc(=O)c2c(OC)c1OC [BAICALEIN TRIMETHYL ETHER]	> 50%	> 50%	54 µM	91.4 µM	–	–	–	–	–
COc1cc([C@@H]2c3cc4c(cc3[C@@H](O[C@@H]3O[C@@H]5CO[C@@H](C)O[C@H]5[C@H](O)[C@H]3O)[C@H]3COC(=O)[C@H]23)OCO4)cc(OC)c1O [ETOPOSIDE]	–	–	–	–	10.4 µM	–	–	–	–
O=c1cc(-c2ccccc2)oc2cc(O)c(O)c(O)c12	–	–	–	–	–	–	–	inactive	inactive
COc1ccc(C(=O)Nc2cccc(-c3cc(=O)c4c(O)c(OC)c(OC)cc4o3)c2)cc1	> 50%	> 50%	> 100 µM	2.05 µM	–	–	–	–	–
COc1cc2oc(-c3cccc(NC(=O)c4ccc(C#N)cc4)c3)cc(=O)c2c(OC)c1OC	> 50%	> 50%	10.2 µM	12.7 µM	–	–	–	–	–
COc1cc2oc(-c3ccc(NC(=O)c4cccc(Br)c4)cc3)cc(=O)c2c(O)c1OC	40%	< 50%	–	–	–	–	–	–	–
COc1cc2oc(-c3cccc(NC(=O)c4cccc(Br)c4)c3)cc(=O)c2c(OC)c1OC	> 50%	> 50%	10.9 µM	6.34 µM	–	–	–	–	–
COc1cc2oc(-c3cccc(NC(=O)c4ccccc4)c3)cc(=O)c2c(OC)c1OC	> 50%	> 50%	11.7 µM	12.1 µM	–	–	–	–	–
COc1ccccc1C(=O)Nc1cccc(-c2cc(=O)c3c(OC)c(OC)c(OC)cc3o2)c1	> 50%	> 50%	7.53 µM	15.3 µM	–	–	–	–	–
COc1cc2oc(-c3ccc(NC(=O)c4ccc(C)cc4)cc3)cc(=O)c2c(O)c1OC	< 50%	< 50%	–	–	–	–	–	–	–

Source: ChEMBL document CHEMBL4425196, “Synthesis of novel flavone derivatives possessing substituted benzamides and their biological evaluation against human cancer cells” (Bioorg Med Chem Lett, 2016)
